Test results from US9763942B2, “Serine/threonine kinase inhibitors” (Array BioPharma Inc., priority 2013, dated 2017).
Like-named read-outs stand apart in the source and are kept apart here.

What was measured:
[1] = target: T1, human ERK-2 (Mitogen Activated Kinase 1) (Homo sapiens, UniProt P28482); test: ERK-2 Enzymatic Assay; format: biochemical
T1 construct: n-terminal 6-His fusion protein in E. coli and corresponding to aa 8-360; 6-His (N); made in house; host or cells: E. coli
Text: Table 1 contains representative data for Examples disclosed herein.

[2] = test system: PMA-stimulated P90RSK(Ser380) phosphorylation in HepG2 cells; test: Cellular P90RSK(Ser380) Phosphorylation Assay; format: cell-based; details: Homo sapiens, 1.5 hours compound incubation, PMA 100 ng/mL 30 minutes, pP90RSK(Ser380) signal normalized to GAPDH, single assay or mean of multiple assays, read-out: Biological Example 2 IC50
Procedure: Inhibition of PMA-stimulated P90RSK(Ser380) phosphorylation was determined by the following in vitro cellular mechanistic assay, which comprises incubating cells with a compound for 1.5 hours and quantifying fluorescent pP90RSK(Ser380) signal on fixed cells and normalizing to GAPDH signal.
HepG2 cells were obtained from ATCC and grown in DMEM supplemented with 10% fetal bovine serum. Cells were plated in 96-well plates at 35,000 cells/well and allowed to attach overnight at 37° C./5% CO2. Diluted compounds were then added at a final concentration of 0.5% DMSO. After 1.5 hours compound incubation, cells were stimulated with the addition of phorbol 12-myristate 13-acetate (“PMA”) at a final concentration of 100 ng/mL; the PMA stimulation was a 30-minute incubation at 37° C./5% CO2. After the 30-minute PMA stimulation, cells were washed with phosphate buffered saline (“PBS”) and fixed in 3.7% formaldehyde in PBS at room temperature for 15-20 minutes. This was followed by another wash in PBS and then permeabilization in 100% MeOH at room temperature for 10-15 minutes. Following the permeabilization incubation, cells were washed in PBS/0.05% Tween-20, followed by a block in Odyssey blocking buffer (LI-COR Biosciences) for at least 1 hour. Antibodies to phosphorylated P90RSK(Ser380) (Cell Signaling #9335, rabbit monoclonal) and GAPDH (Fitzgerald 10R-G109a, mouse monoclonal) were added to the cells and incubated overnight at 4° C. pP90RSK(Ser380) antibody was used at a 1:250 dilution; GAPDH was used at a 1:10,000 dilution. After washing with PBS/0.05% Tween-20, the cells were incubated with fluorescently-labeled secondary antibodies (Anti-rabbit-Alexa Flour680, Invitrogen Cat#A21109; Anti-mouse-IRDye800CW, Rockland Inc. Cat#610-131-121) for 1 hour. Both secondary antibodies were used at a 1:1000 dilution. Cells were then washed and analyzed for fluorescence at both wavelengths using the Odyssey Infrared Imaging System (LI-COR Biosciences). Phosphorylated P90RSK(Ser380) signal was normalized to GAPDH signal.

[3] = 5 nM ERK-2 enzyme, 25 μM ATP (observed Km), Omnia peptide S/T17, single assay or mean of multiple assays, read-out: Biological Example 1 IC50
[4] = ERK-2 enzymatic assay, read-out: IC50

T1 sequence (P28482 8-360): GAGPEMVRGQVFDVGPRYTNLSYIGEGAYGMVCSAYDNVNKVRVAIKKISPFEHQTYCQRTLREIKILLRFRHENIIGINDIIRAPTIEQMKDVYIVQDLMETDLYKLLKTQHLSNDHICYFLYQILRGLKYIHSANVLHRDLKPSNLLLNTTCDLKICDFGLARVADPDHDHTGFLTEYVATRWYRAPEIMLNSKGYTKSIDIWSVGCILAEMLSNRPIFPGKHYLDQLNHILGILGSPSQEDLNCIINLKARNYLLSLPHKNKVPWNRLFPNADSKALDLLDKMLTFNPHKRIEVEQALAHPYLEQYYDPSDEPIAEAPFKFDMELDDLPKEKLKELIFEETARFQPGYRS

| Compound | IC50 [1, 3] [nM] | IC50 [1, 4] [nM] | IC50 [2] [nM] |
| --- | --- | --- | --- |
| COc1ccc(Cn2nnc3cc(-c4ccnc(Nc5ccnn5C)n4)cnc32)cc1F [Example 5, 4-(3-(3-fluoro-4-methoxybenzyl)-3H-[1,2,3]triazolo[4,5-b]pyridin-6-yl)-N-(1-methyl-1H-pyrazol-5-yl)pyrimidin-2-amine] | 2.5 | < 100 | 16.8 |
| COc1ccc(Cn2nnc3cc(-c4ccnc(N[C@@H]5CCOC[C@H]5F)n4)ccc32)cc1F [Example 6, 4-(1-(3-fluoro-4-methoxybenzyl)-1H-benzoyl[d][1,2,3]triazol-5-yl)-N-((3S,4R)-3-fluorotetrahydro-2H-pyran-4-yl)pyrimidin-2-amine] | 2.6 | < 100 | 58.2 |
| COc1ccc(Cn2nnc3cc(-c4ccnc(Nc5cn(C)nc5C)n4)ccc32)cc1F [Example 8, N-(1,3-dimethyl-1H-pyrazol-4-yl)-4-(1-(3-fluoro-4-methoxybenzyl)-1H-benzo[d][1,2,3]triazol-5-yl)pyrimidin-2-amine] | 2.9 | < 100 | 56.8 |
| Cn1nccc1Nc1nccc(-c2ccc3c(c2)nnn3CC2CCC(F)(F)CC2)n1 [Example 33, 4-(1-((4,4-difluorocyclohexyl)methyl)-1H-benzo[d][1,2,3]triazol-5-yl)-N-(1-methyl-1H-pyrazol-5-yl)pyrimidin-2-amine] | 4 | < 100 | 63.3 |
| Cn1nccc1Nc1cc(-c2ccc3c(c2)nnn3Cc2ccc(Cl)cc2)ccn1 [Example 55, 4-(1-(4-chlorobenzyl)-1H-benzo[d][1,2,3]triazol-5-yl)-N-(1-methyl-1H-pyrazol-5-yl)pyridin-2-amine] | 5.1 | < 100 | 184 |
| Cc1ncccc1Cn1nnc2cc(-c3ccnc(Nc4ccnn4C)c3)ccc21 [Example 56, N-(1-methyl-1H-pyrazol-5-yl)-4-(1-((2-methylpyridin-3-yl)methyl)-1H-benzo[d][1,2,3]triazol-5-yl)pyridin-2-amine] | 7.8 | < 100 | 781 |
| COc1ccc([C@@H](c2cnn(C)c2)n2nnc3cc(-c4ccnc(Nc5ccnn5C)n4)ccc32)cc1F [Example 70] | 1.7 | < 100 | 79.1 |
| COc1ccc([C@@H](c2nccn2C)n2nnc3cc(-c4ccnc(Nc5ccnn5C)n4)ccc32)cc1F [Example 72, (S)-4-(1-((3-fluoro-4-methoxyphenyl)(1-methyl-1H-imidazol-2-yl)methyl)-1H-benzo[d][1,2,3]triazol-5-yl)-N-(1-methyl-1H-pyrazol-5-yl)pyrimidin-2-amine] | 2 | < 100 | 3.7 |

More lines, main results first:

| IC50 [1, 3] [nM] | IC50 [1, 4] [nM] | Compound | IC50 [2] [nM] |
| --- | --- | --- | --- |
| 0.9 | < 100 | Cn1nccc1Nc1nccc(-c2ccc3c(c2)nnn3Cc2cccc(F)c2F)n1 [Example 1, 4-(1-(2,3-difluorobenzyl)-1H-benzo[1,2,3]triazol-5-yl)-N-(1-methyl-1H-pyrazol-5-yl)pyrimidin-2-amine] | 22.7 |
| 1.9 | < 100 | Cn1nccc1Nc1nccc(-c2ccc3c(c2)nnn3CCn2cc(Cl)cn2)n1 [Example 4, 4-(1-(2-(4-chloro-1H-pyrazol-1-yl)ethyl)-1H-benzo[d][1,2,3]triazol-5-yl)-N-(1-methyl-1H-pyrazol-5-yl)pyrimidin-2-amine] | 3.2 |
| 5.7 | < 100 | CCOCCCn1nnc2cc(-c3ccnc(Nc4ccnn4C)n3)ccc21 [Example 43, 4-(1-(3-ethoxypropyl)-1H-benzo[d][1,2,3]triazol-5-yl)-N-(1-methyl-1H-pyrazol-5-yl)pyrimidin-2-amine] | 68.5 |
| 11.4 | < 100 | Cc1cccc(Cn2nnc3cc(-c4ccnc(Nc5ccnn5C)n4)ccc32)n1 [Example 58, N-(1-methyl-1H-pyrazol-5-yl)-4-(1-((6-methylpyridin-2-yl)methyl)-1H-benzo[d][1,2,3]triazol-5-yl)pyrimidin-2-amine] | 437 |
| 53.2 | < 100 | Cn1nccc1Nc1nccc(-c2ccc3c(c2)nnn3CC2CNC2)n1 [Example 62, 4-(1-(azetidin-3-ylmethyl)-1H-benzo[d][1,2,3]triazol-5-yl)-N-(1-methyl-1H-pyrazol-5-yl)pyrimidin-2-amine] | 1400 |
| 2.8 | < 100 | CN1CC(n2nnc3cc(-c4ccnc(Nc5ccnn5C)n4)ccc32)C1 [Example 86, N-(1-methyl-1H-pyrazol-5-yl)-4-(1-(1-methylazetidin-3-yl)-1H-benzo[d][1,2,3]triazol-5-yl)pyrimidin-2-amine] | 21.8 |
| 2.2 | < 100 | Cn1nccc1Nc1nccc(-c2ccc3c(c2)nnn3CCn2cccn2)n1 [Example 104, 4-(1-(2-(1H-pyrazol-1-yl)ethyl)-1H-benzo[d][1,2,3]triazol-5-yl)-N-(1-methyl-1H-pyrazol-5-yl)pyrimidin-2-amine] | 19.6 |
